Values of other authors in patent US20080305994A1, “Pharmaceutical Compositions and Method for Treating, Reducing, Ameliorating, Alleviating, or Preventing Dry Eye” (priority 2007, published 2008).

What was measured:
[1] = test system: intercellular adhesion molecule 1 ("ICAM-1"); conditions: rabbits; inhibition of PARP
[2] = test system: lipopolysaccharide ("LPS")-induced leukocyte recruitment within pulmonary arterioles, capillaries, and venules; conditions: rabbits, inhibition of PARP

NC(=O)c1cccc(N)c1 [3-aminobenzamide]
expression of intercellular adhesion molecule 1 (ICAM-1) [1]: suppressed
LPS-induced leukocyte recruitment within pulmonary arterioles, capillaries, and venules [2]: reduced
